Key:
[1] = tested on: HIV-1 (wild type) in C8166 LTRluc cells; experiment: C8166 HIV-1 luciferase assay (EC50), wild type; assay type: cell-based; details: Human immunodeficiency virus 1, C8166 HIV-1 luciferase assay (no *)
Excerpt: (§1) C8166 HIV-1 Luciferase Assay (EC50)
(§2) Plasmid: pGL3 Basic LTR/TAR #12
Plasmid is the pGL3 Basic Vector (a promoterless luciferase expression vector from Promega catalogue #E1751) with the addition of HIV-1 H×B2 LTR sequence from nucleotide −138 to +80 (Sca1-HindIII) upstream of the luciferase gene and the gene for blasticidine resistance cloned in.
(§3) C8166 cells are a human T-lymphotrophic virus type 1 immortalized but nonexpressing line of cord blood lymphocytes and are highly permissive to HIV-1 infection. The reporter cells were made by electroporating C8166 cells with pGL3 Basic LTR/TAR and then selecting positive clones with blasticidine. The clone C8166-LTRluc #A8-F5-G7 was selected by 3 consecutive rounds of limiting dilution under blasticidine selection.
(§4) Media: Complete media consisting of: RPMI 1640+10% FBS+10^−5 M
(§5) β-mercaptoethanol+10 μg/ml gentamycin. Cultures are maintained in complete media with 5 μg/ml blasticidine, however, selection is removed for the assay.
(§6) Luciferase Assay Protocol
(§7) Serial dilutions of HIV-1 inhibitors compounds are prepared in complete media from 10 mM DMSO stock solutions. Eleven serial dilutions of 2.5× are made at 8× desired final concentration in a 1 ml deep well titer plate (96 wells). The 12th well contains complete media with no inhibitor and serves as the positive control. All samples contain the same concentration of DMSO (≦0.1% DMSO). A 25 μl aliquot of inhibitor is added, to triplicate wells, of a 96 well tissue culture treated clear view black microtiter plate (Corning Costar catalogue # 3904). The last row is reserved for uninfected C8166 LTRluc cells to serve as the background blank control and the first row is media alone.
(§8) Count C8166 LTRluc cells and place in a minimal volume of complete RPMI 1640 in a tissue culture flask (ex. 30×10^6 cells in 10 ml media/25 cm^2 flask). Infect cells with HIV-1 at a moi of 0.005. Incubate cells for 1.5 hours at 37° C. on a rotating rack in a 5% CO2 incubator. Resuspend cells in complete RPMI to give a final concentration of 25,000-cells/175 μl. Add 175 μl of cell mix to wells of 96 well microtiter plate containing 25 μl 8× inhibitors. Add 25,000 uninfected C8166-LTRluc cells/well in 200 μl complete RPMI to last row for background control. Incubate cells at 37° C. in 5% CO2 incubator for 3 days.
(§9) Add 50 μl Steady Glo (luciferase substrate T1/2=5 hours Promega catalogue # E2520) to each well of the 96 well plate. Determine the relative light units (RLU) of luciferase using the BMG LUMlstar Galaxy luminometer. Plates are read from the bottom for 2 seconds per well with a gain of 240.
(§10) The level of inhibition (% inhibition) of each well containing inhibitor was calculated with the following equation: […]
The calculated % inhibition values were then used to determine EC50, slope factor (n) and maximum inhibition (Imax) by the non-linear regression routine NLIN procedure of SAS using the following equation: […]
The results are listed in Table 9 as IC50(nM) and EC50 (nM).
(§11) Table legend: A=>100; B=100-50; C=<50; NT=not tested

[2] = molecular target: T1, HIV-1 RT resistant mutant K103N/Y181C (Human immunodeficiency virus type 1 group M subtype B, UniProt P04585, K690N/Y768C); experiment: Reverse transcriptase (RT) enzymatic assay (IC50), PicoGreen fluorescence, resistant mutant; assay type: biochemical
T1 construct: The reverse transcriptase (RT) enzyme assay has been adapted to a 96-well microtiter plate format
Method: (§12) Reverse Transcriptase (RT) Assays Enzymatic Assay (IC50)
The enzymatic assay employed is described as follows: The reverse transcriptase (RT) enzyme assay has been adapted to a 96-well microtiter plate format and uses PicoGreen™ as a fluorescent intercalator. More explicitly, the HIV-1 RT enzyme was thawed and appropriately diluted into Tris/HCl 50 mM pH 7.8 containing NaCl 60 mM, MgCl2∘6H2O 2 mM, DTT 6 mM, GSH 2 mM and 0.02% w/v Chaps to give ≈10 nM enzyme. To 10 μL of this enzyme solution was added 10 μL of inhibitor solution (40 μM to […] inhibitor in the same assay buffer as above containing 4% v/v DMSO). The plate was pre-incubated for 15 minutes at room temperature before proceeding to the next step. In this pre-incubation step, the highest and lowest inhibitor concentrations were 20 μM and 1.016 nM respectively and the concentration of DMSO was 2% v/v. Then the enzymatic reaction was initiated by addition of 20 μL of substrate solution. The final reaction mixture contained Tris/HCl 50 mM pH 7.8, NaCl 60 mM, MgCl2∘6H2O 2 mM, DTT 6 mM, GSH 2 mM, CHAPS 0.02% w/v, DMSO 1% v/v, poly rC 45 nM, dG15 4.5 nM, dGTP 3.6 μM, and ≈2.5 nM enzyme. In this incubation step, the highest and lowest inhibitor concentrations were 10 μM and 0.508 nM respectively. After addition of the substrate cocktail, the plate was covered with a plastic seal and incubated for 50 minutes at 37° C. in a dry incubator. The reaction was then quenched by addition of 5 μL of EDTA 0.5 M. The plate was shaken for 30 seconds at medium speed and incubated for 5 minutes at room temperature. Then 160 μL of PicoGreen™ 1:400 dilution from commercial stock (diluted in Tris 20 mM pH 7.5 with EDTA 1 mM) was added and the plate was shaken for 30 seconds and incubated for 10 minutes at room temperature. The plate was then analyzed using a POLARstar Galaxy fluorimeter (BMG Labtechnologies) with λex and λem of 485 nm and 520 nm respectively. […] Each row contained at its extremities a blank and a control well.
as §11

[3] = tested on: HIV-1 resistant mutant K103N/Y181C in C8166 LTRluc cells; experiment: C8166 HIV-1 luciferase assay (EC50), resistant mutant; assay type: cell-based; details: Human immunodeficiency virus 1, C8166, read-out: EC50 K103N/Y181C
Excerpt: as §1, §2, §3, §4, §5, §6
as §7, with “Eleven” for “Serial dilutions of HIV-1 inhibitors compounds are prepared in complete media from 10 mM DMSO stock solutions. Eleven”
as §8, with “Infect cells with HIV-1 at a moi of 0.005.” left out
as §9, §10
The calculated % inhibition values were then used to determine EC50, slope factor (n) and maximum inhibition (Imax) by the non-linear regression routine NLIN procedure of SAS using the following equation:
as §11

[4] = molecular target: T2, HIV-1 RT enzyme (wild type) (Human immunodeficiency virus type 1 group M subtype B, UniProt P04585); experiment: Reverse transcriptase (RT) enzymatic assay (IC50), PicoGreen fluorescence, wild type; assay type: biochemical; details: RT enzymatic assay, wild type; read-out: IC50 WT
T2 construct: The reverse transcriptase (RT) enzyme assay has been adapted to a 96-well microtiter plate format
Method: as §12
The enzymatic assay employed is described as follows: The reverse transcriptase (RT) enzyme assay has been adapted to a 96-well microtiter plate format and uses PicoGreen™ as a fluorescent intercalator. More explicitly, the HIV-1 RT enzyme was thawed and appropriately diluted into Tris/HCl 50 mM pH 7.8 containing NaCl 60 mM, MgCl2∘6H2O 2 mM, DTT 6 mM, GSH 2 mM and 0.02% w/v Chaps to give ≈10 nM enzyme. […] The plate was pre-incubated for 15 minutes at room temperature before proceeding to the next step. […] Then the enzymatic reaction was initiated by addition of 20 μL of substrate solution. […] After addition of the substrate cocktail, the plate was covered with a plastic seal and incubated for 50 minutes at 37° C. in a dry incubator. The reaction was then quenched by addition of 5 μL of EDTA 0.5 M. The plate was shaken for 30 seconds at medium speed and incubated for 5 minutes at room temperature. Then 160 μL of PicoGreen™ 1:400 dilution from commercial stock (diluted in Tris 20 mM pH 7.5 with EDTA 1 mM) was added and the plate was shaken for 30 seconds and incubated for 10 minutes at room temperature. […] Each row contained at its extremities a blank and a control well.
as §11

SMILES	EC50 [1] [nM]	IC50 [2] [nM]	EC50 [3] [nM]	IC50 [4] [nM]
CC(C)c1ccc(-n2nnnc2SCC(=O)Nc2ccccc2[N+](=O)[O-])cc1 [Entry 142]	< 50	> 100	> 100	
CCN(CC)c1ccc(-n2nnnc2SCC(=O)Nc2ccccc2[N+](=O)[O-])cc1 [Entry 143]	< 50	> 100	> 100	
Cc1ccc(Cl)c(-n2nnnc2SCC(=O)Nc2ccccc2[N+](=O)[O-])c1 [Entry 145]	< 50	> 100	> 100	< 50
Cc1cc(C)c(-n2nnnc2SCC(=O)Nc2ccccc2[N+](=O)[O-])c(Cl)c1 [Entry 146]	< 50	50 to 100	50 to 100	< 50
Cc1cc(C)c(-n2nnnc2SCC(=O)Nc2ccccc2[N+](=O)[O-])c(Br)c1 [Entry 147]	< 50	> 100	50 to 100	< 50
O=C(CSc1nnnn1-c1cccc2ccccc12)Nc1ccccc1Cl [Entry 208, N-(2-Chlorophenyl)-2-{{1-(1-naphthalenyl)-1H-tetrazol-5-yl}thio}acetamide]	< 50		> 100	
O=C(CSc1nnnn1-c1cccc2ccccc12)Nc1ccccc1O [Entry 211]	< 50		> 100	> 100
O=C(CSc1nnnn1-c1cccc2ccccc12)Nc1ccc(-c2ccccc2)cc1Cl [Entry 238]	50 to 100	> 100	> 100	< 50
O=C(CSc1nnnn1-c1cccc2ccccc12)Nc1ccc(O)cc1Cl [Entry 246]	< 50	> 100	> 100	< 50
Cc1nnc(SCC(=O)Nc2ccccc2[N+](=O)[O-])n1-c1cccc2ccccc12 [Entry 403]	< 50	> 100	> 100	< 50
Cc1ccc(-c2ccccc2SCC(=O)Nc2ccccc2Cl)c(Cl)c1 [Entry 416]	< 50	> 100	> 100	< 50
Cc1ccc(-c2ccccc2SCC(=O)Nc2ccccc2[N+](=O)[O-])c(Cl)c1 [Entry 417]	< 50	> 100	> 100	< 50
CCc1nnc(SCC(=O)Nc2ccccc2[N+](=O)[O-])n1-c1cccc2ccccc12 [Entry 425]	< 50	> 100	> 100	
Cc1ccc(-n2c(C)nnc2SCC(=O)Nc2ccccc2[N+](=O)[O-])c(Cl)c1 [Entry 427]	< 50	> 100	> 100	
Cc1ccc(-n2c(C)nnc2SCC(=O)Nc2ccc(-c3ccccc3)cc2Cl)c(Cl)c1 [Entry 428]	< 50	> 100	> 100	
Cc1ccc(-n2c(CCO)nnc2SCC(=O)Nc2ccc(-c3ccccc3)cc2Cl)c(Cl)c1 [Entry 429]	< 50	> 100	> 100	< 50
Cc1nnc(SCC(=O)Nc2ccccc2Cl)n1-c1ccc(C(C)(C)C)cc1Cl [Entry 430]	< 50	50 to 100	50 to 100	< 50
Cc1nnc(SCC(=O)Nc2ccc(S(C)(=O)=O)cc2Cl)n1-c1ccc(C(C)(C)C)cc1Cl [Entry 431]	< 50	50 to 100	< 50	< 50
Cc1ccc(-n2nnnc2SCC(=O)Nc2ccccc2Cl)c(Cl)c1 [Entry 501]	< 50		> 100	
Cc1ccc(-n2nnnc2SCC(=O)Nc2ccc(C(=O)O)cc2Cl)c(Cl)c1 [Entry 503]	< 50	> 100	> 100	< 50
Cc1ccc(-n2nnnc2SCC(=O)Nc2ccc(C(N)=O)cc2Cl)c(Cl)c1 [Entry 504]	< 50	> 100	< 50	< 50
CC(C)(C)c1ccc(-n2nnnc2SCC(=O)Nc2ccc(S(C)(=O)=O)cc2Cl)c(Cl)c1 [Entry 603]	< 50		< 50	
Cc1ccc(-n2nnnc2SCC(=O)Nc2cccnc2Cl)c(Cl)c1 [Entry 803]	< 50	> 100	> 100	

From patent US7642277B2, “Non-nucleoside reverse transcriptase inhibitors” (Boehringer Ingelheim International GmbH, priority 2002, dated 2010)
